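These data come from cells grown in 96-well plates and exposed to compound for 48 hours at five concentrations. The concentration for 50% growth inhibition is given as GI50. TGI: concentration producing complete growth inhibition.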
What was measured:
Experiment in all cases: DTP human tumour cell line panel, 48 h
[1] = tested on: NCI-H522 lung
[2] = tested on: OVCAR-8 ovarian
[3] = tested on: HOP-92 NSCLC
[4] = tested on: SF-539 CNS
[5] = tested on: U251 CNS
[6] = tested on: RXF 393 renal
[7] = tested on: UACC-257 melanoma
[8] = tested on: ACHN renal
[9] = tested on: TK-10 renal
[10] = tested on: RPMI-8226 leukemia
[11] = tested on: A498 renal
[12] = tested on: SNB-75 CNS
[13] = tested on: UO-31 renal
[14] = tested on: LOX IMVI melanoma
[15] = tested on: OVCAR-5 ovarian
[16] = tested on: MDA-MB-231 breast
[17] = tested on: EKVX NSCLC
[18] = tested on: 786-0 renal
[19] = tested on: MOLT-4 leukemia
[20] = tested on: UACC-62 melanoma
[21] = tested on: M14 melanoma
[22] = tested on: HT29 colon
[23] = tested on: BT-549 breast
[24] = tested on: HCT-15 colon
[25] = tested on: SF-295 CNS
[26] = tested on: NCI/ADR-RES ovarian
[27] = tested on: COLO 205 colon
[28] = tested on: NCI-H23 lung
[29] = tested on: CCRF-CEM leukemia
[30] = tested on: SNB-19 CNS
[31] = tested on: OVCAR-3 ovarian
[32] = tested on: MCF7 breast
[33] = tested on: SN12C renal
[34] = tested on: SK-MEL-2 melanoma
[35] = tested on: HCT-116 colon
[36] = tested on: SW-620 colon
[37] = tested on: SF-268 CNS
[38] = tested on: NCI-H226 lung
[39] = tested on: SK-MEL-28 melanoma
[40] = tested on: HS 578T breast
[41] = tested on: MDA-MB-435
[42] = tested on: CAKI-1 renal
[43] = tested on: OVCAR-4 ovarian
[44] = tested on: HL-60(TB) leukemia
[45] = tested on: MALME-3M melanoma
[46] = tested on: SR leukemia
[47] = tested on: K-562 leukemia
[48] = tested on: A549 NSCLC
[49] = tested on: NCI-H460 lung
[50] = tested on: SK-OV-3 ovarian
[51] = tested on: HCC-2998 colon
[52] = tested on: DU-145 prostate
[53] = tested on: KM12 colon
[54] = tested on: PC-3 prostate
[55] = tested on: T-47D breast
[56] = tested on: SK-MEL-5 melanoma
[57] = tested on: HOP-62 NSCLC

`CC(=O)O[C@H]([C@H](OC(C)=O)[C@H](C)OC(C)=O)[C@@H](/C=C/[C@@H]1CC=CC(=O)O1)OC(C)=O` was tested, and the GI50 [1] was 2.05 µM, the TGI [1] was 4.73 µM and the GI50 [2] was 40.6 µM. For the same molecule, the TGI [2] was over 100 µM, the GI50 [3] was 17.3 µM and the TGI [3] was 61.7 µM. For the same molecule, the GI50 [4] was 34.5 µM, the TGI [4] was 92.7 µM and the GI50 [5] was over 100 µM. For the same molecule, the TGI [5] was over 100 µM, the GI50 [6] was over 100 µM and the TGI [6] was over 100 µM. For the same molecule, the GI50 [7] was over 100 µM, the TGI [7] was over 100 µM and the GI50 [8] was over 100 µM. It also gave a TGI [8] of over 100 µM, a GI50 [9] of over 100 µM and a TGI [9] of over 100 µM. It also gave a GI50 [10] of 29.7 µM, a TGI [10] of 99.5 µM and a GI50 [11] of 50.2 µM. It also gave a TGI [11] of over 100 µM, a GI50 [12] of 30.2 µM and a TGI [12] of 69.6 µM. It also gave a GI50 [13] of 20.1 µM, a TGI [13] of 39.9 µM and a GI50 [14] of 57.1 µM. It also gave a TGI [14] of over 100 µM, a GI50 [15] of over 100 µM and a TGI [15] of over 100 µM. For the same molecule, the GI50 [16] was over 100 µM, the TGI [16] was over 100 µM and the GI50 [17] was over 100 µM. The TGI [17] was over 100 µM, the GI50 [18] was 90.1 µM and the TGI [18] was over 100 µM. For the same molecule, the GI50 [19] was over 100 µM, the TGI [19] was over 100 µM and the GI50 [20] was over 100 µM. It also gave a TGI [20] of over 100 µM, a GI50 [21] of 42.6 µM and a TGI [21] of over 100 µM. The GI50 [22] was 72.1 µM, the TGI [22] was over 100 µM and the GI50 [23] was 22.3 µM. For the same molecule, the TGI [23] was 51.3 µM, the GI50 [24] was 44.2 µM and the TGI [24] was over 100 µM. It also gave a GI50 [25] of 15.8 µM, a TGI [25] of 45.9 µM and a GI50 [26] of over 100 µM. It also gave a TGI [26] of over 100 µM, a GI50 [27] of 33.5 µM and a TGI [27] of over 100 µM. The GI50 [28] was 35.6 µM, the TGI [28] was over 100 µM and the GI50 [29] was 41.5 µM. It also gave a TGI [29] of over 100 µM, a GI50 [30] of 59.5 µM and a TGI [30] of over 100 µM. For the same molecule, the GI50 [31] was 17.1 µM, the TGI [31] was 41.9 µM and the GI50 [32] was 33.5 µM. It also gave a TGI [32] of over 100 µM, a GI50 [33] of 84.1 µM and a TGI [33] of over 100 µM. For the same molecule, the GI50 [34] was 24 µM, the TGI [34] was 74.4 µM and the GI50 [35] was 33.4 µM. It also gave a TGI [35] of over 100 µM, a GI50 [36] of 40 µM and a TGI [36] of over 100 µM. The GI50 [37] was 28.9 µM, the TGI [37] was over 100 µM and the GI50 [38] was over 100 µM. The TGI [38] was over 100 µM, the GI50 [39] was 40.4 µM and the TGI [39] was over 100 µM. For the same molecule, the GI50 [40] was 54.7 µM, the TGI [40] was over 100 µM and the GI50 [41] was 19.8 µM. For the same molecule, the TGI [41] was over 100 µM, the GI50 [42] was 29.8 µM and the TGI [42] was 83.6 µM. It also gave a GI50 [43] of 45.3 µM, a TGI [43] of over 100 µM and a GI50 [44] of over 100 µM. For the same molecule, the TGI [44] was over 100 µM, the GI50 [45] was over 100 µM and the TGI [45] was over 100 µM. For the same molecule, the GI50 [46] was 77.5 µM, the TGI [46] was over 100 µM and the GI50 [47] was over 100 µM. The TGI [47] was over 100 µM, the GI50 [48] was over 100 µM and the TGI [48] was over 100 µM. For the same molecule, the GI50 [49] was 42 µM, the TGI [49] was over 100 µM and the GI50 [50] was over 100 µM. The TGI [50] was over 100 µM, the GI50 [51] was 29 µM and the TGI [51] was 77.2 µM. The GI50 [52] was 37.9 µM, the TGI [52] was over 100 µM and the GI50 [53] was over 100 µM. The TGI [53] was over 100 µM, the GI50 [54] was 13.9 µM and the TGI [54] was over 100 µM. The GI50 [55] was 27.4 µM, the TGI [55] was over 100 µM and the GI50 [56] was 44.5 µM. The TGI [56] was over 100 µM, the GI50 [57] was 57.6 µM and the TGI [57] was over 100 µM.

From PubChem BioAssay (NCI)
